{"source": "patent US12447121B2", "about": "“Composition for promoting the skin microbiome” (BEIERSDORF AG, priority 2020, dated 2025)", "key": {"[1]": {"test_system": "S. epidermidis", "assay": "In vitro growth assay (OD, absorption at 600 nm)", "format": "cell-based", "settings": "CASO deficiency medium", "experimental": "Overnight cultures of S. epidermidis were inoculated in 20 ml CASO medium and incubated at 37° C. The culture was then diluted and adjusted to an OD600 of 0.25. From this suspension, the starting culture is prepared with a concentration of 5×10^5 CFU/ml by a 1:200 dilution in CASO deficiency medium. Subsequently, solutions containing the different nitrogen, carbon, and lipid sources were mixed with the start cultures and 200 μl/well were pipetted into a 96 well flat transparent plate, at least in triplets. The plate was placed in a Tecan Reader at 37° C. and Absorption was measured at 600 nm every hour over a period of 24-30 h."}, "[2]": {"test_system": "S. epidermidis", "assay": "In vitro growth assay (plating, colony count)", "format": "cell-based", "settings": "added to low nutrient medium, 37° C., plated and counted; FIGS. 1 and 2", "experimental": "Potential growth-enhancing compounds that are effective in the stabilization of the microbiome were tested by the following in vitro assay. Overnight cultures of S. epidermidis is inoculated in 20 ml CASO medium and incubated at 37° C. The culture was then diluted and adjusted to an OD600 of 0.25. From this suspension, the starting culture is prepared with a concentration of 5×10^5 CFU/ml by a 1:200 dilution in CASO deficiency medium. Subsequently, solutions containing the different active ingredients were mixed with the start cultures and incubated in a thermal mixer at 37° C. by shaking. Samples are taken at the respective time points for testing, diluted with NaCl and plated out on CASO plates using the spiral plater. The plates are incubated for 24 h at 37° C. and then counted."}, "[3]": {"test_system": "skin microbiome", "assay": "In vivo volunteer study: microbial colony count of skin microbiome samples", "design": "species or system human", "settings": "applied in the form of a skin care composition to the facial skin (as worded in the summary)", "experimental": "An in vivo study with 31 volunteers was conducted to examine whether the growth-enhancing compounds that were found effective in the in vitro test can also promote cell growth of the microorganisms in the skin microbiome in vivo when applied to the skin in the form of a lotion. For this purpose, a carrier lotion was prepared to which the test compounds, i.e. the compounds identified as growth-enhancing in the in vitro assays of Example 1, were added. The test formulations were prepared by mixing the compounds to be tested into the carrier lotion. The test formulations were composed as follows: • Formulation 20: […] Carrier lotion+1% urea, 1% sodium Lactate, 1% caprylic/capric triglycerides […] For measuring the microbial colony count, the test site was rinsed with swabs ([…] GmbH, […], Germany) by 3×10 lanes using 2 ml rinsing buffer (12.49 g/L Na2HPO; 0.63 g/L KH2PO4 in molecular grade H2O) in 15 ml Falcon tubes. The sample material was then plated within 60 minutes after collection on Columbia-Sheep-Blood-Tween (COST) agar plates and subsequently incubated. […] After incubation, the bacterial colonies on agar plates were counted using the Countermat Flash."}}, "note": "Entries after “also recorded” stand apart in the source; their conditions may differ."}
{"molecule": "OC[C@H]1O[C@H](O[C@H]2[C@H](O)[C@@H](O)C(O)O[C@@H]2CO)[C@H](O)[C@@H](O)[C@@H]1O", "note": "(mixture of isomers) [Maltose, maltose]", "values": [{"measurement": "growth of S. epidermidis (summary in words of Tables 2 and 3)", "setting": "[1]", "result": "support the growth"}]}
{"molecule": "O=C(CO)[C@@H](O)[C@H](O)[C@H](O)CO", "note": "[Fructose, fructose]", "values": [{"measurement": "growth of S. epidermidis (summary in words of Tables 2 and 3)", "setting": "[1]", "result": "support the growth"}]}
{"molecule": "CC(O)C(=O)O", "note": "(centres unmarked) [Lactate, lactate]", "values": [{"measurement": "growth of S. epidermidis within 24 hours", "setting": "[2]", "result": "significant growth; also recorded: significantly promotes the growth"}, {"measurement": "growth of S. epidermidis (summary in words of Tables 2 and 3)", "setting": "[1]", "result": "support the growth"}]}
{"molecule": "OC[C@H]1O[C@@](CO)(O[C@H]2O[C@H](CO)[C@@H](O)[C@H](O)[C@H]2O)[C@@H](O)[C@@H]1O", "note": "[Sucrose, saccharose]", "values": [{"measurement": "growth of S. epidermidis (summary in words of Tables 2 and 3)", "setting": "[1]", "result": "support the growth"}]}
{"molecule": "CC(O)C(=O)O", "note": "(centres unmarked) [lactic acid]", "values": [{"measurement": "cell number of the resident bacteria", "setting": "[3]", "result": "increase"}]}
{"molecule": "CC(=O)C(=O)O", "note": "[pyruvic acid]", "values": [{"measurement": "cell number of the resident bacteria", "setting": "[3]", "result": "significantly increase"}]}
{"molecule": "maltodextrin", "values": [{"measurement": "growth of S. epidermidis (summary in words of Tables 2 and 3)", "setting": "[1]", "result": "support the growth"}]}
